Measurements taken from US9714424B1, “RNAi inhibition of USP10 to treat ocular disorders” (ICAHN SCHOOL OF MEDICINE AT MOUNT SINAI, priority 2014, dated 2017).

Assays:
USP10 expression = experiment: USP10 protein expression in HCFs treated with TGFβ or TGFβ inhibitor; assay type: cell-based, human
Excerpt: Porcine corneas with scleral rims were mounted on an agarose/collagen base without wounding (control corneas) or after wounding through the anterior stroma with a trephine (wounded corneas). A-H immunostaining of paraffin embedded corneal slices comparing control to 2 weeks post-wounding. Compared to control fibrotic markers increased in the anterior stroma after wounding: (A, B) α-SMA 2.9-fold+/−0.8 ***p<0.005, (C) No primary antibody control, (D, E) USP10 2.5-fold+/−0.8 **p<0.01, and F) Pre-incubation with a USP10 blocking peptide reduced immunostaining. Bar=50 um. (G) Western blot of human and porcine primary epithelial cells (Epi) and stromal cells (Fibro).
Since TGFβ plays an important role in all wounding and fibrotic disease, we tested if TGFβ induced the expression of USP10. In the remaining cell culture studies unless otherwise noted, fibroblasts that have been passaged in serum-containing media are detached and plated on type I collagen in supplemented-serum free media (SSFM). In FIG. 4H, primary human corneal fibroblasts (HCFs) were treated with 1 ng/ml TGFβ for 2 days. TGFβ increased USP10 expression by 57% as compared to no treatment.

[1] = system: αv integrins αvβ1, β3, β5; experiment: TGFβ activity assay, htert-SMAD reporter cells co-cultured with htert-USP10 cells, αv integrin blocking; assay type: cell-based, human; details: 100 nM, compared to control small molecule CWHM96
Method: TGFβ activity was measured using cell lines constitutively expressing pGreenFire Lenti-Reporter (System Biosciences) a reporter for SMAD activation. This reporter was used to generate TGFβ reporter cell lines with htert fibroblasts (htert-SMAD) and 293t cells (293t-SMAD). To assess TGFβ activity with USP10 overexpression, 50K Htert-SMAD cells were co-cultured with 50K cells constitutively overexpressing USP10 (htert-USP10) or control cells (htert cells expressing empty vector, htert-vector cells). After 24 hours, cells were removed with trypsin, pelleted, re-suspended in luciferase reagent, placed in wells in triplicate, and assayed for luciferase expression. To assess TGFβ activity when USP10 was silenced, USP10 and control siRNA were transiently transfected in 293t-SMAD cells and assayed as above. To assess TGFβ activity when av integrins were blocked, USP10 cells were treated with intergrin αv blocking small molecule or matched control small molecule and assayed as above.
It was previously reported that integrin αvβ5 directly activates TGFβ in myofibroblasts. […] First we confirmed that the htert-HCF line had low (undetectable) endogenous TGFβ activity so that the induction of TGFβ activity by USP10 could be quantified (data not shown). […] The next day, cells were lysed and luciferase substrate (Brightglo) was added prior to quantification of luciferase activity in each sample. […]

NC(=O)c1ccc(-c2nc(-c3ccc4c(c3)OCO4)c(-c3ccccn3)[nH]2)cc1 [SB431542]
USP10 expression, decrease (USP10 expression; blocking TGFβ-induced SMAD2/3 signaling): 44%

CC(C)(C)c1cc(Br)cc([C@H](CC(=O)O)NC(=O)CNC(=O)c2cc(O)cc(NC3=NCC(O)CN3)c2)c1 (stereo partly drawn) [CWHM12]
USP10-mediated TGFβ activity, reduction [1]: 63%+/−6%

TGFβ: fibrotic growth factor, added at 1 ng/ml to HCFs
USP10 expression, increase (USP10 expression; 1 ng/ml for 2 days, compared to no treatment): 57%
